Experiments:
[1] = biological target: T1, 5-hydroxytryptamine receptor 6 (Homo sapiens, UniProt P50406); test: Displacement of [3H]LSD from human 5HT6 receptor expressed in HeLa cells; format: cell-based
[2] = biological target: T1, 5-hydroxytryptamine receptor 6; test: Antagonist activity at human 5HT6 receptor expressed in HeLa cells assessed as cAMP production; format: functional, cell-based

T1 sequence (P50406 whole entry): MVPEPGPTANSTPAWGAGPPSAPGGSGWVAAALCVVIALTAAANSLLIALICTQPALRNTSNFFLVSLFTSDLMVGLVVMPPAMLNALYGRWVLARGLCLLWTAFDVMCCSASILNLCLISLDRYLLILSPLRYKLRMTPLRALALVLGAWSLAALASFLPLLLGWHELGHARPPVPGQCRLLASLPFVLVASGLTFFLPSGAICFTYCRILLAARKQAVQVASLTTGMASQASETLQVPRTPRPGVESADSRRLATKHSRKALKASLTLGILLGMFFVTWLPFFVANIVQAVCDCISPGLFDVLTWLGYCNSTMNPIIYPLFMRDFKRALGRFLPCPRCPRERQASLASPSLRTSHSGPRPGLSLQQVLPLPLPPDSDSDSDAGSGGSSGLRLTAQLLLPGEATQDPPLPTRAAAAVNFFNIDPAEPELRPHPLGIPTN

In the case of `COc1ccc(S(=O)(=O)n2cc(CCN)c3ccccc32)cc1OC`, the Ki [1] is reported as 7 nM, the IC50 [2] is reported as 17.5 nM and the Imax [2] is reported as 80.5%.
